# Laboratory results from patent US9914730B2, “Azaquinazoline inhibitors of Atypical protein Kinase C” (Ignyta, Inc., priority 2012, dated 2018).
# Biological target: T1, full-length human PKCι (Homo sapiens, UniProt P41743)
# T1 construct: Recombinant, full-length human PKCι expressed in Sf21 insect cells is also commercially available; purchased; host or cells: Sf21 insect cells
# T1 sequence (P41743 1-596): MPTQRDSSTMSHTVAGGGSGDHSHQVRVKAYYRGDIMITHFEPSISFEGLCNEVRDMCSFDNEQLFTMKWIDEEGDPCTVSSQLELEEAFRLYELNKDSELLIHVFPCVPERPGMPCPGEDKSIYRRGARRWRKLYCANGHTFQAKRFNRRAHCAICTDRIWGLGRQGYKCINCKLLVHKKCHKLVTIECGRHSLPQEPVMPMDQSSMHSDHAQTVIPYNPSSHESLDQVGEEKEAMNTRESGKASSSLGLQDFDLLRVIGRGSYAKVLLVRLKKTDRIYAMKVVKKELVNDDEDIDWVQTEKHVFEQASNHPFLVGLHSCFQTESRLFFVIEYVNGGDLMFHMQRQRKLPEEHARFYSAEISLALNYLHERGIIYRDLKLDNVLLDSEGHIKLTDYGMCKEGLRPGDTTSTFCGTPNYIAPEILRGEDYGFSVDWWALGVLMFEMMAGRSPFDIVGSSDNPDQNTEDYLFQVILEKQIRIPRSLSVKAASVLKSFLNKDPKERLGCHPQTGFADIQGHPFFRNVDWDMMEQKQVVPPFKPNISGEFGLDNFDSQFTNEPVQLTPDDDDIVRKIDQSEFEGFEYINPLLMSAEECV
# Test: PKCι IC50 IMAP assay, full-length PKCι at 150 μM ATP
# Format: biochemical
# Details: read-out: IC50 in IMAP assay against full length PKCi at 150 μM ATP
# Summary of the method: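 Full-length hPKCι (Sf21) ~15 pM; 5FAM-peptide 100 nM; ATP 150 μM (5× KM^APP); tris pH7.5/MgCl2/EGTA/DTT/Triton, 4% DMSO; 60 min RT; IMAP stop, 2 h; FP 485/530 nm; IC50 from % inhibition curves.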
row,Structure (SMILES),IC50 [nM]
1,"Cc1ccc(Cl)c(Nc2cc(-c3nc(N4CCNCC4)c4c(C5CC5)cncc4n3)ccn2)c1 [Example 577, (2-Chloro-5-methyl-phenyl)-[4-(5-cyclopropyl-4-piperazin-1-yl-pyrido[3,4-d]pyrimidin-2-yl)-pyridin-2-yl]-Amine]",< 100
2,"Fc1cccc(Nc2cc(-c3nc(N4CCNCC4)c4c(C5CC5)cncc4n3)ccn2)c1Cl [Example 578, (2-Chloro-3-fluoro-phenyl)-[4-(5-eyclopropyl-4-piperazin-1-yl-pyrido[3,4-d]pyrimidin-2-yl)-pyridin-2-yl]-Amine]",< 100
3,"COc1cc2nccc(-c3nc(N4CCNCC4)c4c(C5CC5)cncc4n3)c2cc1OC [Example 579, 5-Cyclopropyl-2-(6,7-dimethoxy-quinolin-4-yl)-4-piperazin-1-yl-pyrido[3,4-d]pyrimidine]",10000 to 40000
4,"COc1ccc(F)c(Nc2cc(-c3nc(N4CCNCC4)c4c(C5CC5)cncc4n3)ccn2)c1 [Example 580, [4-(5-Cyclopropyl-4-piperazin-1-yl-pyrido[3,4-d]pyrimidin-2-yl)-pyridin-2-yl]-(2-fluoro-5-methoxy-phenyl)-amine]",< 100
5,"CC(=O)Nc1cc(-c2nc(N3CCNCC3)c3c(C4CC4)cncc3n2)ccn1 [Example 581, N-[4-(5-Cyclopropyl-4-piperazin-1-yl-pyrido[3,4-d]pyrimidin-2-yl)-pyridin-2-yl]-acetamide]",< 100
6,"Nc1cc(-c2nc(N3CCNCC3)c3c(C4CC4)cncc3n2)ccn1 [Example 582, 4-(5-Cyclopropyl-4-piperazin-1-yl-pyrido[3,4-d]pyrimidin-2-yl)-pyridin-2-ylamine]",< 100
7,"CC(C)C(=O)Nc1cc(-c2nc(N3CCNCC3)c3c(C4CC4)cncc3n2)ccn1 [Example 583, N-[4-(5-Cyclopropyl-4-piperazin-1-yl-pyrido[3,4-d]pyrimidin-2-yl)-pyridin-2-yl]-isobutyramide]",< 100
8,"O=C(Nc1cc(-c2nc(N3CCNCC3)c3c(C4CC4)cncc3n2)ccn1)C1CC1 [Example 584, Cyclopropane-carboxylic acid [4-(5-cyclopropyl-4-piperazin-1-yl-pyrido[3,4-d]pyrimidin-2-yl)-pyridin-2-yl]-amide]",< 100
9,"FC1(F)CC(Nc2cc(-c3nc(N4CCNCC4)c4c(C5CC5)cncc4n3)ccn2)C1 [Example 585, [4-(5-Cyclopropyl-4-piperazin-1-yl-pyrido[3,4-d]pyrimidin-2-yl)-pyridin-2-yl]-(3,3-difluorocyclo-butyl)-amine]",< 100
10,"C[C@@H](Nc1cc(-c2nc(N3CCNCC3)c3c(C4CC4)cncc3n2)ccn1)c1ccccc1 [Example 586, [4-(5-Cyclopropyl-4-piperazin-1-yl-pyrido[3,4-d]pyrimidin-2-yl)-pyridin-2-yl]-((R)-1-phenyl-ethyl)-amine]",< 100
11,"C[C@H](Nc1cc(-c2nc(N3CCNCC3)c3c(C4CC4)cncc3n2)ccn1)c1ccccc1 [Example 587, [4-(5-Cyclopropyl-4-piperazin-1-yl-pyrido[3,4-d]pyrimidin-2-yl)-pyridin-2-yl]-((S)-1-phenyl-ethyl)-amine]",< 100

# Continued, values first:
row,IC50 [nM],Structure (SMILES)
1,< 100,"c1cc(-c2nc(N3CCNCC3)c3c(C4CC4)cncc3n2)cc(Nc2ccc3ccnn3c2)n1 [Example 563, [4-(5-Cyclopropyl-4-piperazin-1-yl-pyrido[3,4-d]pyrimidin-2-yl)-pyridin-2-yl]-pyrazolo[1,5-a]pyridin-6-yl-amine]"
2,< 100,"c1cc(-c2nc(N3CCNCC3)c3c(C4CC4)cncc3n2)cc(Nc2ccn3nccc3c2)n1 [Example 564, [4-(5-Cyclopropyl-4-piperazin-1-yl-pyrido[3,4-d]pyrimidin-2-yl)-pyridin-2-yl]-pyrazolo[1,5-a]pyridin-5-yl-amine]"
3,< 100,"FC(F)(F)c1cnnc(Nc2cc(-c3nc(N4CCNCC4)c4c(C5CC5)cncc4n3)ccn2)c1 [Example 565, [4-(5-Cyclopropyl-4-piperazin-1-yl-pyrido[3,4-d]pyrimidin-2-yl)-pyridin-2-yl]-(5-trifluoromethyl-pyridazin-3-yl)-amine]"
4,< 100,"COc1ccc(F)c(Nc2cc(-c3nc(N4CCNCC4)c4c(C5CC5)cncc4n3)ccn2)c1F [Example 566, [4-(5-Cyclopropyl-4-piperazin-1-yl-pyrido[3,4-d]pyrimidin-2-yl)-pyridin-2-yl]-(2,6-difluoro-3-methoxy-phenyl)-amine]"
5,< 100,"CCOc1ccc(F)c(Nc2cc(-c3nc(N4CCNCC4)c4c(C5CC5)cncc4n3)ccn2)c1F [Example 567, [4-(5-Cyclopropyl-4-piperazin-1-yl-pyrido[3,4-d]pyrimidin-2-yl)-pyridin-2-yl]-(3-ethoxy-2,6-difluoro-phenyl)-amine]"
6,< 100,"Cc1cccc(Nc2cc(-c3nc(N4CCNCC4)c4c(C5CC5)cncc4n3)ccn2)c1Cl [Example 568, (2-Chloro-3-methyl-phenyl)-[4-(5-cyclopropyl-4-piperazin-1-yl-pyrido[3,4-d]pyrimidin-2-yl)-pyridin-2-yl]-amine]"
7,< 100,"C[C@H]1CN(c2nc(-c3ccnc(Nc4ccccc4)c3)nc3cncc(C4CC4)c23)CCN1 [Example 569, {4-[5-Cyclopropyl-4-((S)-3-methyl-piperazin-1-yl)-pyrido[3,4-d]pyrimidin-2-yl]-pyridin-2-yl}-phenyl-amine]"
8,< 100,"Fc1ccc(Nc2cc(-c3nc(N4CCNCC4)c4c(C5CC5)cncc4n3)ccn2)c(Cl)c1 [Example 570, (2-Chloro-4-fluoro-phenyl)-[4-(5-cyclopropyl-4-piperazin-1-yl-pyrido[3,4-d]pyrimidin-2-yl)-pyridin-2-yl]-amine]"
9,< 100,"COc1cccc(Nc2cc(-c3nc(N4CCNCC4)c4c(C5CC5)cncc4n3)ccn2)c1 [Example 571, [4-(5-Cyclopropyl-4-piperazin-1-yl-pyrido[3,4-d]pyrimidin-2-yl)-pyridin-2-yl]-(3-methoxy-phenyl)-amine]"
10,< 100,"Cc1ccc(Nc2cc(-c3nc(N4CCNCC4)c4c(C5CC5)cncc4n3)ccn2)c(Cl)c1 [Example 572, (2-Chloro-4-methyl-phenyl)-[4-(5-cyclopropyl-4-piperazin-1-yl-pyrido[3,4-d]pyrimidin-2-yl)-pyridin-2-yl]-amine]"
11,< 100,"Cc1ccc(Nc2cc(-c3nc(N4CCNCC4)c4c(C5CC5)cncc4n3)ccn2)c(C)c1 [Example 573, [4-(5-Cyclopropyl-4-piperazin-1-yl-pyrido[3,4-d]pyrimidin-2-yl)-pyridin-2-yl]-(2,4-dimethyl-phenyl)-amine]"
12,< 100,"Cc1cccc(Nc2cc(-c3nc(N4CCNCC4)c4c(C5CC5)cncc4n3)ccn2)c1F [Example 574, [4-(5-Cyclopropyl-4-piperazin-1-yl-pyrido[3,4-d]pyrimidin-2-yl)-pyridin-2-yl]-(2-fluoro-3-methyl-phenyl)-amine]"
13,< 100,"Cc1ccc(Nc2cc(-c3nc(N4CCNCC4)c4c(C5CC5)cncc4n3)ccn2)c(F)c1 [Example 575, [4-(5-Cyclopropyl-4-piperazin-1-yl-pyrido[3,4-d]pyrimidin-2-yl)-pyridin-2-yl]-(2-fluoro-4-methyl-phenyl)-amine]"
14,< 100,"Fc1ccc(Cl)c(Nc2cc(-c3nc(N4CCNCC4)c4c(C5CC5)cncc4n3)ccn2)c1 [Example 576, (2-Chloro-5-fluoro-phenyl)-[4-(5-cyclopropyl-4-piperazin-1-yl-pyrido[3,4-d]pyrimidin-2-yl)-pyridin-2-yl]-Amine]"
